Among the data in US20220251109A1, “OXAAZAQUINAZOLINE-7(8H)-KETONE COMPOUND, PREPARATION METHOD THEREFOR AND PHARMACEUTICAL APPLICATION THEREOF” (GENFLEET THERAPEUTICS (SHANGHAI) INC., priority 2019, published 2022) are IC50 values, retold here.

Broadly, the pIC50 is −log10 of the IC50, conventionally taken in molar units.

What all share (format): cell-based, human
The test system of assay [1] is MIA PaCa-2 cells (Kras G12C mutation). Put plainly: Cell proliferation inhibition experiment, 3D model, CellTiter-Glo (MIA PaCa-2). The following applies: MIA PaCa-2, 3D sphere plate, 5 days, read-out: MIA-PaCa2 IC50. The protocol: MIA PaCa2 was a human pancreatic cancer cell line with Kras G12C mutation, cultured in 10% FBS+2.5% Horse serum DMEM medium; A549 was a human lung adenocarcinoma cell line with Kras G12S mutation, cultured in 10% FBS F-12K medium. The cells in the logarithmic growth phase were taken, digested with enzyme EDTA, collected, counted and 200 MIA PaCa-2 or 400 A549 cells were seeded in a 384-well sphere plate respectively, cultured overnight to establish a 3D cell model. DMSO was used to prepare 1000× compound 3.16-fold gradient concentration stock solution, and medium was used to dilute 100-fold to 10× compound stock solution. On the second day after cell seeding, 10× compound stock solution was added to each cell culture well, the final concentration was 1×, and DMSO content was 0.1%. DMSO was used as an experimental control (control), medium as the blank control (blank). After the compound and cells were added and cultured for 5 days, 30 μl CellTiter-Glo working solution was added to each well, mixed and incubated for 30 minutes. After 30 minutes at room temperature, 40 μl of the mixture was transferred to a 384-well plate with a non-transparent white bottom, the luminescence chemiluminescence value was read, and the cells proliferation inhibition rate IR (%)=(RLU control-RLU compound)/(RLU control-RLU blank)×100% was calculated, XLFit four-parameter method was used to fit the compound's gradient dilution concentration and the corresponding cell proliferation inhibition rate, and the IC50 value was calculate.

The subject of assay [2] is NCI-H358 cells (Kras G12C mutation). Put plainly: Cell proliferation inhibition experiment, 3D model, CellTiter-Glo (NCI-H358). The following applies: NCI-H358, 3D sphere plate, 5 days, 2% FBS. The protocol: (§1) NCI-H358 was a human non-small cell lung cancer cell line with Kras G12C mutation, cultured in 10% FBS RPMI-1640 medium; A549 was a human lung adenocarcinoma cell line with Kras G12S mutation, cultured in 10% FBS F-12K medium. The cells in the logarithmic growth phase was taken, digested with trypsin EDTA, collected and counted, and H358 was adjusted to 1.8E4 cells/ml using 2% FBS RPMI-1640 medium, and A549 was adjusted to 8.9E3 cells/ml using 2% FBS F-12K medium; 800 (45 μl) H358 or 400 (45 μl) A549 cells were seeded in a 384-well sphere plate respectively, cultured overnight to establish a 3D cell model. DMSO was used to prepare 1000× compound 3.16-fold gradient concentration stock solution, and 2% FBS medium was used to dilute 100-fold to 10× compound stock solution. On the second day after cell seeding, 5 μl 10× compound stock solution was added to each cell culture well, the final concentration was 1×, and DMSO content was 0.1%. DMSO was used as the experimental control (control) and 2% FBS medium as the blank control (blank). After the compound and cells were added and cultured for 5 days, 25 μl CellTiter-Glo working solution was added to each well, mixed at 400 rpm and incubated for 30 minutes. After 30 minutes at room temperature, 40 μl of the mixture was transferred to a 384-well plate with a non-transparent white bottom, the luminescence chemiluminescence value was read, and the cells proliferation inhibition rate IR (%)=(RLU control-RLU compound)/(RLU control-RLU blank)×100% was calculated, Prism 6 four-parameter method was used to fit the compound's gradient dilution concentration and the corresponding cell proliferation inhibition rate, and the IC50 value was calculate.

Assay [3] concerns A549 cells (Kras G12S mutation). Nature of the assay: Cell proliferation inhibition experiment, 3D model, CellTiter-Glo (A549). The following applies: A549, 3D sphere plate, 5 days, 2% FBS. The protocol: as §1
(ATP-based viability assays read luminescence as a measure of living cells.)

Where [4] appears, read: Homo sapiens, MIA PaCa-2, 120 h.

pIC50: −log10 of the molar value. Like-named read-outs stand apart in the source and are kept apart here. Bounds are passed on as bounds.

As to `C=CC(=O)N1CCN2c3nc(=O)n(-c4c(C)ccnc4C(C)C)c4cc(-c5c(C)ccc6[nH]ncc56)c(Cl)c(c34)OC[C@@H]2C1` (single isomer, unassigned) [Compound Z26-2], the pIC50 in assay [1] was 8.40; in assay [2], 9.00; in assay [3] it was less than 5.00.
On the same counts, the results for `C=CC(=O)N1CCN2c3nc(=O)n(-c4c(C)ccnc4C(C)C)c4cc(-c5c(O)cccc5F)cc(c34)OC[C@@H]2C1` (single isomer, unassigned) [Compound Z15-1] are 7.70, 7.77 and 4.65.
For `[2H]C([2H])([2H])Oc1cccc(F)c1-c1nc2c3c(nc(=O)n2-c2c(C)ccnc2C(C)C)N2CCN(C(=O)C=C)C[C@@H]2COc3c1F` (single isomer, unassigned) [Compound Z100-1], the pIC50 in assay [1] (setting [4]) is 8.40; in assay [2], 8.70; in assay [3] (Homo sapiens, A549, 120 h), 4.71.
Turning to `C=CC(=O)N1CCN2c3nc(=O)n(-c4c(C)ccnc4C(C)C)c4cc(-c5c(O)cccc5F)cc(c34)OC[C@H]2C1` [Compound Z16, (R)-2-acryloyl-10-(2-fluoro-6-hydroxyphenyl)-8-(2-isopropyl-4-methylpyridin-3-yl)-1,2,3,4,13,13a-hexahydropyrazino[2′,1′:3,4][1,4]oxazepine[5,6,7-de]quinazolin-7 (8H)-one], the pIC50 in assay [1] (setting [4]) was 7.54; in assay [2] (Homo sapiens, NCI-H358, 120 h), 7.39; in assay [3] (Homo sapiens, A549, 120 h) it was less than 5.00.
As for `C=CC(=O)N1CCN2c3nc(=O)n(-c4c(C)ccnc4C4CC4)c4nc(-c5ccccc5F)c(Cl)c(c34)OC[C@H]2C1` (single isomer, unassigned) [Compound Z102-1], the pIC50 in assay [1] was 8.40; in assay [2], 8.40; in assay [3] (Homo sapiens, A549, 120 h), 4.88.
Consider `C=CC(=O)N1CCN2c3nc(=O)n(-c4c(C)ccnc4C(C)C)c4nc(-c5ccccc5F)c(Cl)c(c34)OC[C@@H]2C1` [Compound Z46], for which the pIC50 in assay [1] (setting [4]) was 7.70; in assay [2] (Homo sapiens, NCI-H358, 120 h) it was 8.30; in assay [3] (Homo sapiens, A549, 120 h), less than 5.00.
As for `C=CC(=O)N1CCN2c3nc(=O)n(-c4c(C)ccnc4C(C)C)c4cc(-c5c(C)ccc6[nH]ncc56)c(Cl)c(c34)OC[C@@H]2C1` (single isomer, unassigned) [Compound Z26-1], the pIC50 is 7.13 in assay [1]; 7.51 in assay [2]; 4.86 in assay [3] (Homo sapiens, A549, 120 h).
As to `C=CC(=O)N1CCN2c3nc(=O)n(-c4c(C)ccnc4C(C)C)c4nc(-c5c(F)cccc5F)c(Cl)c(c34)OC[C@@H]2C1` [Compound Z68], the pIC50 in assay [1] (setting [4]) is 8.05; in assay [2] (Homo sapiens, NCI-H358, 120 h), 8.52; in assay [3] (Homo sapiens, A549, 120 h), less than 5.00.
On the same counts, the results for `C=CC(=O)N1CCN2c3nc(=O)n(-c4ccccc4C(C)C)c4cc(-c5c(C)ccc6[nH]ncc56)c(Cl)c(c34)OC[C@@H]2C1` [Compound Z20] are 7.82, 8.30 and 5.42.
On the same counts, the results for `C=CC(=O)N1CCN2c3nc(=O)n(-c4c(C)ccnc4C(C)C)c4nc(-c5cc(Cl)ccc5F)c(Cl)c(c34)OC[C@@H]2C1` [Compound Z59] are 7.59, 8.22 and less than 5.00.
On the same counts, the results for `C=CC(=O)N1CCN2c3nc(=O)n(-c4c(C)ccnc4C(C)C)c4nc(-c5cc(F)ccc5O)c(Cl)c(c34)OC[C@@H]2C1` [Compound Z55] are 7.59, 8.05 and less than 5.00.
As for `C=CC(=O)N1CCN2c3nc(=O)n(-c4c(C)ccnc4C(C)C)c4cc(-c5c(C)ccc6[nH]ncc56)c(Cl)c(c34)OC[C@@H]2C1` (atropisomer, axis not shown) [Compound Z26-2-2], the pIC50 in assay [1] was 8.52; in assay [2], 8.70; in assay [3], less than 5.00.
Consider `C=CC(=O)N1CCN2c3nc(=O)n(C4CC4)c4cc(-c5c(C)ccc6[nH]ncc56)c(Cl)c(c34)OC[C@@H]2C1` [Compound Z17], for which the pIC50 in assay [1] (setting [4]) is 7.26; in assay [2] (Homo sapiens, NCI-H358, 120 h), 7.20; in assay [3] (Homo sapiens, A549, 120 h) it was 4.64.
On the same counts, the results for `C=CC(=O)N1CCN2c3nc(=O)n(-c4c(C)ncnc4C4CC4)c4nc(-c5c(O)cccc5F)c(Cl)c(c34)OC[C@H]2C1` [Compound Z103] are 7.74, 8.15 and less than 4.52.
With `C=CC(=O)N1CCN2c3nc(=O)n(-c4c(C)ccnc4C(C)C)c4nc(-c5c(O)cccc5F)c(Cl)c(c34)OC[C@@H]2C1` [Compound Z24, (5 aS)-7-acryloyl-3-chloro-2-(2-fluoro-6-hydroxyphenyl)-12-(2-isopropyl-4-methylpyridin-3-yl)-5,5a,6,7,8,9-hexahydro-4-oxo-1,7,9a,10,12-pentazabenzo[4,5] cyclohepta[1,2,3-de]naphthalen-11 (12H)-one], the negative logarithm of the IC50 (pIC50) in assay [1] (setting [4]) is 8.05; in assay [2] it was 8.10; in assay [3] (Homo sapiens, A549, 120 h), 4.98.
As to `C=CC(=O)N1CCN2c3nc(=O)n(-c4ccccc4C(C)C)c4cc(-c5c(C)ccc6[nH]ncc56)c(Cl)c(c34)OC[C@@H]2C1` (single isomer, unassigned) [Compound Z20-3], the pIC50 in assay [1] was 9.30; in assay [2], 9.22; in assay [3], less than 5.00.
In the case of `C=CC(=O)N1CCN2c3nc(=O)n(-c4c(C)ccnc4C(C)C)c4nc(-c5cccc(C(F)(F)F)c5F)c(Cl)c(c34)OC[C@@H]2C1` [Compound Z57], the pIC50 in assay [1] (setting [4]) was 7.66; in assay [2], 8.30; in assay [3] (Homo sapiens, A549, 120 h), less than 5.00.
Regarding `Cc1ccnc(C(C)C)c1-n1c(=O)nc2c3c(c(Cl)c(-c4ccccc4F)nc31)OC[C@H]1CN(C(=O)/C=C/CN(C)C)CCN21` (single isomer, unassigned) [Compound Z237-2], the pIC50 in assay [1] (setting [4]) is 7.32; in assay [2] (Homo sapiens, NCI-H358, 120 h), 7.33; in assay [3] (Homo sapiens, A549, 120 h), less than 4.52.
On to `C=CC(=O)N1CCN2c3nc(=O)n(-c4c(C)ccnc4C(C)C)c4cc(-c5c(O)cccc5F)c(Cl)c(c34)OC[C@@H]2C1` [Compound Z31], for which the pIC50 is 7.60 in assay [1] (setting [4]); 7.33 in assay [2] (Homo sapiens, NCI-H358, 120 h); 4.91 in assay [3] (Homo sapiens, A549, 120 h).
Turning to `C=CC(=O)N1CCN2c3nc(=O)n(-c4c(C)ccnc4C(C)C)c4cc(-c5c(O)cccc5F)c(Cl)c(c34)OC[C@H]2C1` (single isomer, unassigned) [Compound Z29-2], the figures for the pIC50 in assay [1], in assay [2] and in assay [3] were 8.22, 8.30 and less than 5.00, respectively.
On the same counts, the results for `C=CC(=O)N1CCN2c3nc(=O)n(-c4c(C)ccnc4C(C)C)c4cc(-c5c(C)ccc6[nH]ncc56)c(Cl)c(c34)OC[C@H]2C1` (single isomer, unassigned) [Compound Z30-2] are 8.30, 8.70 and 4.68.
Turning to `C=CC(=O)N1CCN2c3nc(=O)n(-c4c(C)ccnc4C(C)C)c4nc(-c5cccc(F)c5)c(Cl)c(c34)OC[C@@H]2C1` [Compound Z48], the pIC50 was 7.66 in assay [2] (Homo sapiens, NCI-H358, 120 h) and less than 5.00 in assay [3] (Homo sapiens, A549, 120 h).
Taken in the same sequence, the figures for `C=CC(=O)N1CCN2c3nc(=O)n(-c4c(C)ccnc4C(C)C)c4nc(-c5ccncc5F)c(Cl)c(c34)OC[C@@H]2C1` [Compound Z69] were 7.02 and less than 5.00.
For `C=CC(=O)N1CCN2c3nc(=O)n(-c4c(C)ccnc4C(C)C)c4nc(-c5c(O)cccc5F)cc(c34)OC[C@H]2C1` (atropisomer, axis not shown) [Compound Z25-2], the values for the pIC50 in assay [2] and in assay [3] were 6.55 and less than 5.00, respectively.
`C=CC(=O)N1CCN2c3nc(=O)n(-c4cccnc4C(C)C)c4cc(-c5c(C)ccc6[nH]ncc56)c(Cl)c(c34)OC[C@@H]2C1` [Compound Z39]: the pIC50 in assay [1] (setting [4]) was 6.35.
